Several values for one entry are separate records, joined by “and”; a condition that tells them apart may be missing. Identical values can stand only once.
Legend:
Type in all cases: in vivo
[1] = system: 3395IR (homozygous XA17 imi-resistant corn line); assay: Greenhouse spray test of corn lines with imidazolinone herbicides, injury score; conditions: for Score, individual plants (0 dead plants, 5 healthy plants with no injury): 16 days after treatment; for M.S.: score 0 (dead) to 5 (healthy), 16 days
From the text: (§1) Grow one corn plant per pot (5×5 inch) in a 3×5 flat till three- to four-leaf stage (about 9 to 13 days depending on the weather). On the day of spraying, water the plants well and let excess water drip out. Spray plants on a belt-sprayer with the imidazolinone herbicides at desired rates. […] When temperature was too high, base water plants to prevent wilting. Closely observe the plants for the next two to three weeks. Symptoms of herbicide injury will be visible three days after spraying and susceptible plants will die within two to three weeks depending on temperature.
(§2) The plants were rated on a scale of 0-5 with 0 for dead plants and 5 for healthy plants with no or minimum injury.
(§3) Two transgenic hybrids BAa-4 and MAa-7 lines (see FIG. 5 for their pedigree), a non-transformed control line B×A (B73×A188), 8962IT (heterozygous XI12 imi-tolerant corn line), 8962 (wild type control) and 3395IR (homozygous XA17 imi-resistant corn line) (8962IT and 8962 were from ICI, now Garst Seed Company, Slater, Iowa 50244, and 3395IR was from Pioneer Hi-Bred International Inc, Iowa 50306-3453). Plants were sprayed with 4, 8, 16 or 20×PURSUIT® imazethapyr, ARSENAL® imazapyr, CADRE® imazameth or RAPTOR® imazamox. Plants were scored 0 to 5 (with 0 being dead plants, 5 being healthy plants with no injury) individually 16 days after herbicide treatments. […] For the four tested imidazolinones, transgenic plants could tolerate higher rates of ARSENAL® imazapyr, PURSUIT® imazethapyr, than CADRE® imazameth and RAPTOR® imazamox.

[2] = system: non-transformed control corn line BxA (B73×A188); assay: as above; conditions: for Score, individual plants (0 dead plants, 5 healthy plants with no injury): 16 days after treatment; for M.S.: score 0 (dead) to 5 (healthy), 16 days
From the text: as §1, §2, §3

[3] = system: transgenic corn hybrid BAa-4; assay: as above; conditions: for Score, individual plants (0 dead plants, 5 healthy plants with no injury) / M.S.: BAa-4; for Score, individual plants (0 dead plants, 5 healthy plants with no injury): 16 days after treatment; for M.S.: score 0 (dead) to 5 (healthy), 16 days
From the text: as §1, §2, §3

[4] = system: transgenic corn hybrid MAa-7; assay: as above; conditions: for Score, individual plants (0 dead plants, 5 healthy plants with no injury) / M.S.: MAa-7; for Score, individual plants (0 dead plants, 5 healthy plants with no injury): 16 days after treatment; for M.S.: score 0 (dead) to 5 (healthy), 16 days
From the text: as §1, §2, §3

[5] = system: 8692 (wild type control corn line); assay: as above; conditions: for Score, individual plants (0 dead plants, 5 healthy plants with no injury): 16 days after treatment; for M.S.: score 0 (dead) to 5 (healthy), 16 days
[6] = system: 8692IT (heterozygous XI12 imi-tolerant corn line); assay: as above; conditions: for Score, individual plants (0 dead plants, 5 healthy plants with no injury): 16 days after treatment; for M.S.: score 0 (dead) to 5 (healthy), 16 days
[7] = system: rice plants (transgenic Lines 26 and 29; Nt control); assay: Greenhouse herbicide tests on rice; conditions: for average seed set in two transgenic lines: PURSUIT, RAPTOR, CADRE, SCEPTER at all rates tested, ARSENAL 1 to 2×; for rate at which growth of transgenic plants was slightly affected: post-emergence, fresh weight and visual observation
Method in brief: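 Pre-germinated T3 lines and untransformed Nt sprayed with imazethapyr (63, 125, 250 g ai/ha) 1 day (pre-emergence) or 15 days (post-emergence) after seeding; later nine herbicides at 1, 2, 4, 6× rates. Read-outs: height, tillers, panicles, yield, fresh weight at 29–32 days, seed set; three replicates.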

[8] = 4×: PURSUIT 250, RAPTOR 160, ARSENAL 96, CADRE 400 g/ha
[9] = 8×: PURSUIT 500, RAPTOR 320, ARSENAL 192, CADRE 800 g/ha
[10] = 16×: RAPTOR 640 g/ha, ARSENAL 384 g/ha, CADRE 1.6 kg/ha

## CCc1cnc(C2=NC(C)(C(C)C)C(=O)N2)c(C(=O)O)c1 (centres unmarked) [PURSUIT ®, imazethapyr]
[1]; [8]
  Score, individual plants (0 dead plants, 5 healthy plants with no injury): 5
  M.S.: 5
[1]; [9]
  Score, individual plants (0 dead plants, 5 healthy plants with no injury): 5
  M.S.: 5
[1]; 20×: PURSUIT 1.25 kg/ha
  Score, individual plants (0 dead plants, 5 healthy plants with no injury): 5
  M.S.: 5
[2]; [8]
  Score, individual plants (0 dead plants, 5 healthy plants with no injury): 0
  M.S.: 0
[2]; [9]
  Score, individual plants (0 dead plants, 5 healthy plants with no injury): 0
  M.S.: 0
[2]; 20×: PURSUIT 1.25 kg/ha
  Score, individual plants (0 dead plants, 5 healthy plants with no injury): 0
  M.S.: 0
[3]; [8]
  Score, individual plants (0 dead plants, 5 healthy plants with no injury): 5
  M.S.: 5
[3]; [9]
  Score, individual plants (0 dead plants, 5 healthy plants with no injury): 5
  M.S.: 5
[3]; 20×: PURSUIT 1.25 kg/ha
  Score, individual plants (0 dead plants, 5 healthy plants with no injury): 4 (3×) and 3 and 2
  M.S.: 3.4
[4]; [8]
  Score, individual plants (0 dead plants, 5 healthy plants with no injury): 5
  M.S.: 5
[4]; [9]
  Score, individual plants (0 dead plants, 5 healthy plants with no injury): 5
  M.S.: 5
[4]; 20×: PURSUIT 1.25 kg/ha
  Score, individual plants (0 dead plants, 5 healthy plants with no injury): 0 and 3 and 2 (2×) and 4
  M.S.: 2.2
[5]; [8]
  Score, individual plants (0 dead plants, 5 healthy plants with no injury): 2 (3×) and 1 (2×)
  M.S.: 1.6
[5]; [9]
  Score, individual plants (0 dead plants, 5 healthy plants with no injury): 0
  M.S.: 0
[5]; 20×: PURSUIT 1.25 kg/ha
  Score, individual plants (0 dead plants, 5 healthy plants with no injury): 0
  M.S.: 0
[6]; [8]
  Score, individual plants (0 dead plants, 5 healthy plants with no injury): 5
  M.S.: 5
[6]; [9]
  Score, individual plants (0 dead plants, 5 healthy plants with no injury): 5 (4×) and 4
  M.S.: 4.8
[6]; 20×: PURSUIT 1.25 kg/ha
  Score, individual plants (0 dead plants, 5 healthy plants with no injury): 4 (4×) and 3
  M.S.: 3.8
[7]
  average seed set in two transgenic lines: about 85%
  rate at which growth of transgenic plants was slightly affected: 6 ×
[7]; pre-emergence, 63, 125, 250 g/ha
  fate of transgenic plants of Lines 26 and 29: survived at all rates applied

## COCc1cnc(C2=NC(C)(C(C)C)C(=O)N2)c(C(=O)O)c1 (centres unmarked) [RAPTOR ®, imazamox]
[1]; [8]
  Score, individual plants (0 dead plants, 5 healthy plants with no injury): 5
  M.S.: 5
[1]; [9]
  Score, individual plants (0 dead plants, 5 healthy plants with no injury): 5
  M.S.: 5
[1]; [10]
  Score, individual plants (0 dead plants, 5 healthy plants with no injury): 5
  M.S.: 5
[2]; [8]
  Score, individual plants (0 dead plants, 5 healthy plants with no injury): 0
  M.S.: 0
[2]; [9]
  Score, individual plants (0 dead plants, 5 healthy plants with no injury): 0
  M.S.: 0
[2]; [10]
  Score, individual plants (0 dead plants, 5 healthy plants with no injury): 0
  M.S.: 0
[3]; 4× (160 g/ha)
  growth of transgenic line BAa-4: slightly affected
[3]; [8]
  Score, individual plants (0 dead plants, 5 healthy plants with no injury): 3 and 4 (4×)
  M.S.: 3.8
[3]; [9]
  Score, individual plants (0 dead plants, 5 healthy plants with no injury): 4 (4×) and 0
  M.S.: 3.2
[3]; [10]
  Score, individual plants (0 dead plants, 5 healthy plants with no injury): 3 and 0 (3×) and 1
  M.S.: 0.8
[4]; 4× (160 g/ha)
  performance of transgenic line MAa-7: performed well
[4]; [8]
  Score, individual plants (0 dead plants, 5 healthy plants with no injury): 4 and 5 (4×)
  M.S.: 4.8
[4]; [9]
  Score, individual plants (0 dead plants, 5 healthy plants with no injury): 3 (3×) and 2 and 4
  M.S.: 3
[4]; [10]
  Score, individual plants (0 dead plants, 5 healthy plants with no injury): 1
  M.S.: 1
[5]; [8]
  Score, individual plants (0 dead plants, 5 healthy plants with no injury): 0
  M.S.: 0
[5]; [9]
  Score, individual plants (0 dead plants, 5 healthy plants with no injury): 0
  M.S.: 0
[5]; [10]
  Score, individual plants (0 dead plants, 5 healthy plants with no injury): 0
  M.S.: 0
[6]; [8]
  Score, individual plants (0 dead plants, 5 healthy plants with no injury): 4 and 3 (3×) and 2
  M.S.: 3
[6]; [9]
  Score, individual plants (0 dead plants, 5 healthy plants with no injury): 3 (2×) and 2 (2×)
  M.S.: 2.5
[6]; [10]
  Score, individual plants (0 dead plants, 5 healthy plants with no injury): 2 (2×) and 1 and 0 (2×)
  M.S.: 1
[7]
  average seed set in two transgenic lines: about 85%
  rate at which growth of transgenic plants was slightly affected: 6 ×
[7]; pre-emergence
  rate at which growth of both transgenic lines was affected: 6 ×

Reference: US6653529B2, “Use of the maize X112 mutant ahas 2 gene and imidazolinone herbicides for selection of transgenic monocots, maize, rice and wheat plants resistant to the imidazolinone herbicides” (BASF Aktiengesellschaft, priority 2000, dated 2003)
